Patent US7491489B2 (priority 2004, dated 2009)
Values after ≈ are worked out from the molar mass of the structure shown.

Experiments:
SARS-CoV GZ50 strain [1] = system: SARS-CoV GZ50 strain
SARS-CoV GZ50 strain [2] = assay type: cell-based

Row | Structure (SMILES) | IC90 (peptide concentration that reduced the viral titer by 90% relative to untreated control) (SARS-CoV GZ50 strain [1]) | Intracellular viral RNA levels (SARS-CoV GZ50 strain [2]) | Released viral titer relative to untreated control (SARS-CoV GZ50 strain [1]) | Cytotoxic effects on peptide-treated cells (FRhK-4 cells)
1 | CC[C@H](C)[C@H](NC(=O)CNC(=O)[C@H](CC(C)C)NC(=O)[C@@H]1CCCN1C(=O)[C@H](CC(C)C)NC(=O)[C@H](CCCCN)NC(=O)[C@@H](N)Cc1ccccc1)C(=O)N[C@@H](CC(N)=O)C(=O)N[C@H](C(=O)N[C@H](C(=O)N[C@@H](CC(N)=O)C(=O)N[C@@H](Cc1ccccc1)C(=O)N[C@@H](CCCNC(=N)N)C(=O)N[C@@H](C)C(=O)N[C@H](C(=O)N[C@@H](CC(C)C)C(=O)N[C@H](C(=O)N[C@@H](C)C(=O)N[C@@H](Cc1ccccc1)C(=O)N[C@@H](CO)C(=O)O)[C@@H](C)O)[C@@H](C)CC)[C@@H](C)O)[C@@H](C)CC [P1] | >500 µg/mL |  |  | 
2 | CC[C@H](C)[C@H](NC(=O)[C@@H](NC(=O)CNC(=O)[C@H](CC(N)=O)NC(=O)[C@H](CCC(=O)O)NC(=O)[C@H](CC(=O)O)NC(=O)[C@H](Cc1ccc(O)cc1)NC(=O)[C@H](CCCCN)NC(=O)[C@H](CC(C)C)NC(=O)[C@H](CCSC)NC(=O)[C@H](Cc1ccccc1)NC(=O)[C@@H](NC(=O)[C@@H](NC(=O)[C@@H]1CCCN1)[C@@H](C)O)[C@@H](C)O)[C@@H](C)O)C(=O)N[C@H](C(=O)N[C@@H](CC(=O)O)C(=O)N[C@@H](C)C(=O)N[C@H](C(=O)N[C@@H](CC(=O)O)C(=O)N[C@@H](CS)C(=O)O)C(C)C)[C@@H](C)O [P2] | 112.5 ± 26.3 µg/mL (≈ 50.3 µM) | reduced | 18 % of the control | 
3 | CC(C)C[C@H](NC(=O)[C@@H](N)C(C)C)C(=O)N[C@@H](Cc1ccc(O)cc1)C(=O)N[C@@H](CC(N)=O)C(=O)N[C@@H](CO)C(=O)N[C@H](C(=O)N[C@@H](Cc1ccccc1)C(=O)N[C@@H](Cc1ccccc1)C(=O)N[C@@H](CO)C(=O)N[C@H](C(=O)N[C@@H](Cc1ccccc1)C(=O)N[C@@H](CCCCN)C(=O)N[C@@H](CS)C(=O)N[C@@H](Cc1ccc(O)cc1)C(=O)NCC(=O)N[C@H](C(=O)N[C@@H](CO)C(=O)N[C@@H](C)C(=O)N[C@H](C(=O)N[C@@H](CCCCN)C(=O)O)[C@@H](C)O)C(C)C)[C@@H](C)O)[C@@H](C)O [P3] | >500 µg/mL |  |  | 
4 | CC[C@H](C)[C@H](NC(=O)CNC(=O)[C@H](CO)NC(=O)[C@@H](NC(=O)[C@@H](NC(=O)[C@H](Cc1ccc(O)cc1)NC(=O)[C@H](Cc1ccccc1)NC(=O)CNC(=O)[C@H](Cc1ccc(O)cc1)NC(=O)[C@H](CC(=O)O)NC(=O)[C@H](CC(N)=O)NC(=O)[C@H](CC(C)C)NC(=O)[C@@H]1CCCN1C(=O)[C@H](Cc1c[nH]c2ccccc12)NC(=O)[C@H](Cc1ccc(O)cc1)NC(=O)[C@H](CS)NC(=O)[C@H](CC(N)=O)NC(=O)[C@H](CC(C)C)NC(=O)[C@H](C)NC(=O)[C@@H]1CCCN1)[C@@H](C)O)[C@@H](C)O)C(=O)O [P4] | >500 µg/mL |  |  | 
5 | CC[C@H](C)[C@H](NC(=O)[C@H](CCC(=O)O)NC(=O)[C@H](CO)NC(=O)[C@@H](NC(=O)[C@H](CCCCN)NC(=O)[C@@H]1CCCN1C(=O)[C@H](CC(=O)O)NC(=O)[C@H](CCCNC(=N)N)NC(=O)[C@@H](NC(=O)[C@H](CO)NC(=O)[C@H](CC(=O)O)NC(=O)[C@@H](NC(=O)[C@H](Cc1ccccc1)NC(=O)[C@H](CC(=O)O)NC(=O)[C@H](CO)NC(=O)[C@@H](NC(=O)[C@H](CC(=O)O)NC(=O)[C@@H](N)CCCNC(=N)N)C(C)C)[C@@H](C)O)C(C)C)[C@@H](C)O)C(=O)N[C@@H](CC(C)C)C(=O)N[C@@H](CC(=O)O)C(=O)O [P5] | >500 µg/mL |  |  | 
6 | CC[C@H](C)[C@H](NC(=O)[C@H](C)NC(=O)[C@@H](NC(=O)[C@H](CO)NC(=O)[C@@H](NC(=O)[C@H](CC(=O)O)NC(=O)[C@@H](NC(=O)[C@H](CS)NC(=O)[C@H](CC(N)=O)NC(=O)[C@@H](NC(=O)[C@H](CC(=O)O)NC(=O)[C@H](CCC(N)=O)NC(=O)[C@@H](N)Cc1ccc(O)cc1)C(C)C)[C@@H](C)O)C(C)C)[C@@H](C)O)C(=O)N[C@@H](Cc1c[nH]cn1)C(=O)N[C@@H](C)C(=O)N[C@@H](CC(=O)O)C(=O)N[C@@H](CCC(N)=O)C(=O)N[C@@H](CC(C)C)C(=O)N[C@H](C(=O)N1CCC[C@H]1C(=O)O)[C@@H](C)O [P6] | 113.0 µg/mL (≈ 51.6 µM) | reduced | 18 % of the control | 
7 | CC[C@H](C)[C@H](NC(=O)[C@H](CO)NC(=O)[C@H](Cc1ccccc1)NC(=O)[C@H](CC(N)=O)NC(=O)[C@@H](NC(=O)[C@@H]1CCCN1C(=O)[C@@H](NC(=O)[C@H](C)NC(=O)[C@@H](NC(=O)[C@@H](NC(=O)[C@H](CC(N)=O)NC(=O)[C@H](CC(N)=O)NC(=O)[C@@H](N)CO)[C@@H](C)O)[C@@H](C)CC)[C@@H](C)CC)[C@@H](C)O)C(=O)N[C@@H](CO)C(=O)N[C@H](C(=O)N[C@H](C(=O)N[C@H](C(=O)N[C@@H](CCC(=O)O)C(=O)N[C@H](C(=O)N[C@@H](CCSC)C(=O)O)C(C)C)[C@@H](C)O)[C@@H](C)O)[C@@H](C)CC [P7] | >500 µg/mL |  |  | 
8 | CC[C@H](C)[C@H](NC(=O)CNC(=O)[C@H](CO)NC(=O)[C@H](CC(C)C)NC(=O)[C@H](C)NC(=O)[C@H](CCCNC(=N)N)NC(=O)[C@H](CC(N)=O)NC(=O)[C@H](CC(C)C)NC(=O)[C@H](CCC(N)=O)NC(=O)[C@@H](NC(=O)[C@H](CS)NC(=O)[C@H](Cc1ccccc1)NC(=O)[C@H](CO)NC(=O)CNC(=O)[C@H](Cc1ccc(O)cc1)NC(=O)[C@@H](N)CCC(N)=O)[C@@H](C)O)C(=O)N[C@@H](C)C(=O)N[C@@H](C)C(=O)N[C@@H](CCC(=O)O)C(=O)N[C@@H](CCC(N)=O)C(=O)O [P8] | 24.9 µg/mL (≈ 11.5 µM) |  |  | None of the 10 peptide-treated cells exhibited cytotoxic effects
9 | CC[C@H](C)[C@H](NC(=O)CN)C(=O)NCC(=O)N[C@H](C(=O)N[C@H](C(=O)N[C@@H](CCC(N)=O)C(=O)N[C@@H](CC(N)=O)C(=O)N[C@H](C(=O)N[C@@H](CC(C)C)C(=O)N[C@@H](Cc1ccc(O)cc1)C(=O)N[C@@H](CCC(=O)O)C(=O)N[C@@H](CC(N)=O)C(=O)N[C@@H](CCC(N)=O)C(=O)N[C@@H](CCCCN)C(=O)N[C@@H](CCC(N)=O)C(=O)N[C@H](C(=O)N[C@@H](C)C(=O)N[C@@H](CC(N)=O)C(=O)N[C@@H](CCC(N)=O)C(=O)N[C@@H](Cc1ccccc1)C(=O)O)[C@@H](C)CC)C(C)C)[C@@H](C)O)C(C)C [P9] | >500 µg/mL |  |  | 
